Measured values taken from patent US20130085064A1, “PESTICIDAL MIXTURES CONTAINING ISOXAZOLINE DERIVATIVES AND INSECTICIDE OR NEMATOICIDAL BIOLOGICAL AGENT” (priority 2010, published 2013).
Where “and” joins values, the source holds several entries; their conditions need not be identical. Equal values may be shown once. Read-outs that look alike come from different tables or passages of the source.

Experiments:
Type in all cases: in vivo
[1] = test system: Heliothis virescens (tobacco budworm); experiment: Heliothis virescens eggs in 24-well microtiter plate on artificial diet, larval mortality; conditions: Heliothis virescens, 96 h, read-out: AVERAGE DEAD IN %
Description: (§1) The action to be expected E for a given active ingredient combination obeys the so-called COLBY formula and can be calculated as follows (COLBY, S.R. “Calculating synergistic and antagonistic responses of herbicide combination”. Weeds, Vol. 15, pages 20-22; 1967):
(§2) ppm=milligrams of active ingredient (=a.i.) per liter of spray mixture X=% action by active ingredient A) using p ppm of active ingredient Y=% action by active ingredient B) using q ppm of active ingredient.
(§3) According to COLBY, the expected (additive) action of active ingredients A)+B) using p+q ppm of active ingredient is
(§4) If the action actually observed (O) is greater than the expected action (E), then the action of the combination is super-additive, i.e. there is a synergistic effect. In mathematical terms the synergism factor SF corresponds to O/E. In the agricultural practice an SF of ≧1.2 indicates significant improvement over the purely complementary addition of activities (expected activity), while an SF of ≦0.9 in the practical application routine signals a loss of activity compared to the expected activity.
Heliothis Virescens (Tobacco Budworm)
Eggs (0-24 h old) are placed in 24-well microtiter plate on artificial diet and treated with test solutions (DMSO) by pipetting. After an incubation period of 4 days, samples are checked for larval mortality.

[2] = test system: Heliothis virescens (tobacco budworm); experiment: Heliothis virescens ovo-larvicide, feeding/contact, eggs on filter paper in Petri dishes; conditions: for AVERAGE DEAD IN % (EGGS) / AVERAGE DEAD IN % (LARVAE): single compound, 7 days; for activity on eggs: egg mortality, 7 days incubation
Description: as §1, §2, §3, §4
Heliothis Virescens (Tobacco Budworm):
(Ovo-Larvicide, Feeding/Contact)
30-35 fresh eggs (0-24 h old), deposited on filter paper, are placed in Petri dishes on top of a layer of artificial diet and 0.8 ml of diluted test solutions are pipetted onto them. After an incubation period of 7 days, samples are checked for egg and larval mortality. 3 replicates per treatment were evaluated.

[3] = test system: Tetranychus urticae (two spotted spider mite); experiment: Tetranychus urticae contact/feeding activity on bean plants, adult mortality
Description: as §1, §2, §3, §4
Tetranychus Urticae (Two Spotted Spider Mite)
(Contact/Feeding Activity)
Bean plants are infested with mite populations of mixed ages. 1 day after infestation, plants are treated in a spray chamber with diluted test solutions. 1 and 8 days later, samples are checked for adult mortality. 2 replicates per treatment were evaluated.

[4] = test system: Spodoptera littoralis (Egyptian cotton leaf worm); experiment: Spodoptera littoralis larvicide L1, feeding/contact, cotton leaf discs; conditions: single compound
Description: as §1, §2, §3, §4
Spodoptera Littoralis (Egyptian Cotton Leaf Worm)
(Larvicide L1, Feeding/Contact)
Cotton leaf discs are placed on agar in Petri dishes and sprayed with test solutions in an application chamber. After drying, the leaf discs are infested with 10 L1 larvae. The samples are checked for mortality 5 days after treatment. 3 replicates per treatment were evaluated. (1 PPM=1 mg l^−1)

[5] = single compound at 0.025 ppm AI

CC1(C)[C@H](C(=O)O[C@H](C#N)c2cccc(Oc3ccccc3)c2)[C@@H]1/C=C(\Cl)C(F)(F)F (racemic) [Lambda Cyhalothrin, lambda-cyhalothrin]
pest or weed control at 0.00625 ppm ([1]; Lambda Cyhalothrin alone 0.00625 ppm AI): 0%
pest or weed control at 0.0125 ppm ([1]; Lambda Cyhalothrin alone 0.0125 ppm AI): 0%
pest or weed control at 0.025 ppm ([1]; Lambda Cyhalothrin alone 0.025 ppm AI): 0%
pest or weed control at 0.05 ppm ([1]; Lambda Cyhalothrin alone 0.05 ppm AI): 0%
pest or weed control at 0.1 ppm ([1]; Lambda Cyhalothrin alone 0.1 ppm AI): 25%
pest or weed control at 0.2 ppm ([1]; Lambda Cyhalothrin alone 0.2 ppm AI): 75%
pest or weed control at 0.00625 ppm ([1]; single compound at 0.00625 ppm AI): 0%
pest or weed control at 0.0125 ppm ([1]; single compound at 0.0125 ppm AI): 0%
pest or weed control at 0.025 ppm [1, 5]: 0%
pest or weed control at 0.05 ppm ([1]; single compound at 0.05 ppm AI): 0%
pest or weed control at 0.1 ppm ([1]; single compound at 0.1 ppm AI): 25%
pest or weed control at 0.2 ppm ([1]; single compound at 0.2 ppm AI): 75%
AVERAGE DEAD IN % (EGGS) ([2]; 0.05 ppm AI): 0%
AVERAGE DEAD IN % (LARVAE) ([2]; 0.05 ppm AI, larvae): 33%
AVERAGE DEAD IN % (EGGS) ([2]; 0.1 ppm AI): 17%
AVERAGE DEAD IN % (LARVAE) ([2]; 0.1 ppm AI, larvae): 100%
AVERAGE DEAD IN % (EGGS) ([2]; 0.2 ppm AI): 50%
AVERAGE DEAD IN % (LARVAE) ([2]; 0.2 ppm AI, larvae): 100%
AVERAGE DEAD IN % AFTER 1 DAY ([3]; 3.125 ppm alone): 70%
AVERAGE DEAD IN % AFTER 1 DAY ([3]; 6.25 ppm alone): 90%
AVERAGE DEAD IN % AFTER 8 DAYS ([3]; 6.25 ppm alone): 85% and 90%
AVERAGE DEAD IN % AFTER 1 DAY ([3]; 12.5 ppm alone): 83%
AVERAGE DEAD IN % AFTER 8 DAYS ([3]; 12.5 ppm alone): 98% and 90%
AVERAGE DEAD IN % AFTER 1 DAY ([3]; Lambda Cyhalothrin alone 3.125 ppm AI): 25%
AVERAGE DEAD IN % AFTER 1 DAY ([3]; Lambda Cyhalothrin alone 6.25 ppm AI): 55%
AVERAGE DEAD IN % AFTER 1 DAY ([3]; Lambda Cyhalothrin alone 12.5 ppm AI): 88%
AVERAGE DEAD IN % AFTER 5 DAYS ([4]; 0.05 PPM AI): 10% and 20%
AVERAGE DEAD IN % AFTER 5 DAYS ([4]; 0.05 ppm AI): 20%
AVERAGE DEAD IN % AFTER 5 DAYS ([4]; 0.1 ppm AI): 37%
AVERAGE DEAD IN % AFTER 5 DAYS ([4]; 0.2 ppm AI): 57%

CCOP(=S)(OCC)Oc1nc(Cl)c(Cl)cc1Cl [Chlorpyriphos, chlorpyrifos]
pest or weed control at 25 ppm ([1]; single compound at 25 ppm AI): 45%
pest or weed control at 50 ppm ([1]; single compound at 50 ppm AI): 90%
pest or weed control at 100 ppm ([1]; single compound at 100 ppm AI): 100%
pest or weed control at 200 ppm ([1]; single compound at 200 ppm AI): 100%
pest or weed control at 400 ppm ([1]; single compound at 400 ppm AI): 100%
pest or weed control at 800 ppm ([1]; single compound at 800 ppm AI): 100%
activity on eggs [2]: inactive
AVERAGE DEAD IN % (LARVAE) ([2]; 50 ppm AI, larvae): 0%
AVERAGE DEAD IN % (LARVAE) ([2]; 100 ppm AI, larvae): 0%
AVERAGE DEAD IN % (LARVAE) ([2]; 200 ppm AI, larvae): 30%
AVERAGE DEAD IN % AFTER 8 DAYS ([3]; 50 ppm alone): 0%
AVERAGE DEAD IN % AFTER 8 DAYS ([3]; 100 ppm alone): 20%
AVERAGE DEAD IN % AFTER 8 DAYS ([3]; 200 ppm alone): 63%
AVERAGE DEAD IN % AFTER 1 DAY ([3]; Chlorpyrifos alone 50 ppm AI): 0%
AVERAGE DEAD IN % AFTER 1 DAY ([3]; Chlorpyrifos alone 100 ppm AI): 60%
AVERAGE DEAD IN % AFTER 1 DAY ([3]; Chlorpyrifos alone 200 ppm AI): 88%
AVERAGE DEAD IN % AFTER 5 DAYS ([4]; 12.5 PPM AI): 10% and 7%
AVERAGE DEAD IN % AFTER 5 DAYS ([4]; 25 PPM AI): 17% and 10%
AVERAGE DEAD IN % AFTER 5 DAYS ([4]; 50 PPM AI): 30% and 20%

CNC(=O)c1cc(C#N)cc(C)c1NC(=O)c1cc(Br)nn1-c1ncccc1Cl [Cyantraniliprole, cyantraniliprole]
pest or weed control at 0.025 ppm ([1]; Cyantraniliprole alone 0.025 ppm AI): 0%
pest or weed control at 0.05 ppm ([1]; Cyantraniliprole alone 0.05 ppm AI): 0%
pest or weed control at 0.1 ppm ([1]; Cyantraniliprole alone 0.1 ppm AI): 45%
pest or weed control at 0.2 ppm ([1]; Cyantraniliprole alone 0.2 ppm AI): 78%
pest or weed control at 0.4 ppm ([1]; Cyantraniliprole alone 0.4 ppm AI): 90%
pest or weed control at 0.8 ppm ([1]; Cyantraniliprole alone 0.8 ppm AI): 100%
pest or weed control at 0.025 ppm [1, 5]: 0%
pest or weed control at 0.05 ppm ([1]; single compound at 0.05 ppm AI): 0%
pest or weed control at 0.1 ppm ([1]; single compound at 0.1 ppm AI): 45%
pest or weed control at 0.2 ppm ([1]; single compound at 0.2 ppm AI): 78%
pest or weed control at 0.4 ppm ([1]; single compound at 0.4 ppm AI): 90%
pest or weed control at 0.8 ppm ([1]; single compound at 0.8 ppm AI): 100%
activity on eggs [2]: inactive
AVERAGE DEAD IN % (LARVAE) ([2]; 0.2 ppm AI, larvae): 23%
AVERAGE DEAD IN % (LARVAE) ([2]; 0.4 ppm AI, larvae): 70% and 63%
AVERAGE DEAD IN % (LARVAE) ([2]; 0.8 ppm AI, larvae): 82% and 72%
AVERAGE DEAD IN % AFTER 8 DAYS ([3]; 100 ppm alone): 35%
AVERAGE DEAD IN % AFTER 8 DAYS ([3]; 200 ppm alone): 25%
AVERAGE DEAD IN % AFTER 1 DAY ([3]; Cyantraniliprole alone 100 ppm AI): 0%
AVERAGE DEAD IN % AFTER 1 DAY ([3]; Cyantraniliprole alone 200 ppm AI): 10%
AVERAGE DEAD IN % AFTER 5 DAYS ([4]; 0.0125 PPM AI): 23%
AVERAGE DEAD IN % AFTER 5 DAYS ([4]; 0.025 PPM AI): 27% and 30%
AVERAGE DEAD IN % AFTER 5 DAYS ([4]; 0.05 PPM AI): 40% and 50%

CC1=NNC(=O)N(/N=C/c2cccnc2)C1 [Pymetrozine, pymetrozine]
pest or weed control at 25 ppm ([1]; Pymetrozine alone 25 ppm AI): 0%
pest or weed control at 50 ppm ([1]; Pymetrozine alone 50 ppm AI): 0%
pest or weed control at 100 ppm ([1]; Pymetrozine alone 100 ppm AI): 0%
pest or weed control at 200 ppm ([1]; Pymetrozine alone 200 ppm AI): 0%
pest or weed control at 400 ppm ([1]; Pymetrozine alone 400 ppm AI): 0%
pest or weed control at 800 ppm ([1]; Pymetrozine alone 800 ppm AI): 0%
pest or weed control at 25 ppm ([1]; single compound at 25 ppm AI): 0%
pest or weed control at 50 ppm ([1]; single compound at 50 ppm AI): 0%
pest or weed control at 100 ppm ([1]; single compound at 100 ppm AI): 0%
pest or weed control at 200 ppm ([1]; single compound at 200 ppm AI): 0%
pest or weed control at 400 ppm ([1]; single compound at 400 ppm AI): 0%
pest or weed control at 800 ppm ([1]; single compound at 800 ppm AI): 0%
activity on eggs [2]: inactive
AVERAGE DEAD IN % (LARVAE) ([2]; 100 ppm AI, larvae): 0%
AVERAGE DEAD IN % (LARVAE) ([2]; 200 PPM AI): 37%
AVERAGE DEAD IN % (LARVAE) ([2]; 200 ppm AI, larvae): 40%
AVERAGE DEAD IN % AFTER 8 DAYS ([3]; 200 ppm alone): 0%
AVERAGE DEAD IN % AFTER 1 DAY ([3]; Pymetrozine alone 200 ppm AI): 5%
AVERAGE DEAD IN % AFTER 5 DAYS ([4]; 100 PPM AI): 17% and 7%
AVERAGE DEAD IN % AFTER 5 DAYS ([4]; 100 ppm AI): 7%
AVERAGE DEAD IN % AFTER 5 DAYS ([4]; 200 PPM AI): 20% and 17%
AVERAGE DEAD IN % AFTER 5 DAYS ([4]; 200 ppm AI): 17%
